Test results from patent US5047533A, “Acyclic purine phosphonate nucleotide analogs” (SRI International, priority 1990, dated 1991).
In brackets after ≈: the same amount, converted by molar mass. Read-outs that look alike come from different tables or passages of the source.

Key:
[1] = test system: HSV-1TK+ (Strain McCrae of type 1 herpes); test: Inhibition of viral CPE, HSV-1TK+ in MA-104 cells; type: cell-based; details: for inhibition at 1 µg/mL: 1.0 μg/ml; for inhibition at 3.2 µg/mL: 3.2 μg/ml; for inhibition at 10 µg/mL: 10 μg/ml; for inhibition at 100 µg/mL: 100 μg/ml; for inhibition at 320 µg/mL: 320 μg/ml; for inhibition at 1000 µg/mL: 1000 μg/ml
Procedure: (§1) One herpes virus strain employed was Strain McCrae of type 1 herpes (thymidine kinase positive virus) (HSV-1TK^+). This strain was prepared and titered in MA-104 cells and frozen at -90° C. until use. Also used were strain HF (HSV-1TK^-). Strain E194 (HSV-2), NJB strain (MCMV), strain AD169 (HCMV).
(§2) Continuous passaged monkey kidney (MA-104) cells were used for testing of herpes-type virus, with growth medium consisting of Minimum Essential Medium (MEM) supplemented with 0.1% NaHCO3 and […] gentamicin.
(§3) To a 96 well microtiter plate containing an established 24 hour monolayer of cells from which the medium has been decanted was added 0.1 ml of varying (one-half log10) concentrations of test compound, which incubated on the cell 15 minutes, after which 0.1 ml of virus in a concentration of 320 cell culture 50% infectious doses (CCID50)/0.1 ml was added. The plate was covered with plastic wrap and incubated at 37° C. Included with the test were toxicity controls (each concentration of compound+test medium in place of virus), virus controls (virus+test medium in place of compound) and cell controls (test medium in place of compound and virus). The cells were examined microscopically after 72 hours for evidence of cytotoxicity and for viral cytopathic effect (CPE). Vidarabine was run on the same plate in parallel. The test compounds were added to the medium at a concentration of 2000 μg/ml for use as a positive control.
Antiviral activity was determined by observation of inhibition of viral CPE. This activity was expressed by ED50, defined as that dose range of compound causing 50% CPE inhibition.
A Virus Rating (VR) was also determined. VR is a numerical expression of antiviral activity, weighted to take into account any cytotoxicity observed, as discussed by Sidewell et al, Appl Microbiol (1971) 22:797. Generally, a VR of 0.1-0.4 indicates slight antiviral effect, 0.5-0.9 indicates moderate antiviral effect, and ≥1.0 indicates strong antiviral effect.

[2] = test system: human cytomegalovirus (strain AD169); test: Plaque reduction, human cytomegalovirus; type: cell-based
Procedure: as §1
^a 50% effective dose, determined from plot of data.
(§4) The data on acyclovir were gathered from tests run in MRC-5 cells grown under agarose overlay, with plaques read 7 days after virus exposure.

HSV-1TK+ = test: In vivo guinea pig HSV-1TK+ lesion test, topical solution; details: guinea pigs; 5% solution of acyclovir; five days after treatment
Procedure: Compound 2 also was tested in vivo in guinea pigs as an agent against HSV-1TK^+. The animals were inoculated with the virus; 18 hours later Compound 2 at two concentrations (0.4% and 1-2% (saturated) solution in water) was administered, and five days later blister diameters at the point of inoculation were measured. A 5% solution of acyclovir or a 1.4% solution of poly(vinylalcohol) was used as control. Satellite lesions were measured, as well.

[3] = Cytotoxicity (maximum tolerated dose), control tests in 96-well microplates; type: cell-based; details: Table 5; microscopic examination, separately run control tests; read-out: Approx. MTD (dose causing approximately 50% cytotoxic effects in cells)
Source text: (§5) ^b Maximum tolerated dose: That dose causing approximately 50%
(§6) cytotoxic effects in cells, determined by the microscopic examination of
(§7) cells for sloughing, shape alteration, and granularity in separately run
(§8) control tests in 96well microplates.
as §4

HSV-2 (Strain E194) = test: Inhibition of viral CPE, HSV-2; type: cell-based
Procedure: as §1, §2
as §3, with “The test compounds were added to the medium at a concentration of 2000 μg/ml for use as a positive control.” left out
(§9) Antiviral activity was determined by observation of inhibition of viral CPE. […]

cells = test: Cytotoxicity (maximum tolerated dose), control tests in 96-well microplates; type: cell-based; details: overall, Table 5
Source text: as §5, §6, §7, §8, §4

murine CMV (NJB strain) = test: Inhibition of viral CPE, murine CMV; type: cell-based
Procedure: as §1, §2
as §3, with “Vidarabine was run on the same plate in parallel. The test compounds were added to the medium at a concentration of 2000 μg/ml for use as a positive control.” left out
as §9
A Virus Rating (VR) was also determined. […]

[4] = test system: reverse transcriptase (RT) from Moloney murine leukemia virus (MMLV) or avian myeloblastosis virus (AMV); test: Reverse transcriptase assay; type: biochemical; details: 8 mM concentration
Procedure: For the reverse transcriptase assay, cloned reverse transcriptase (RT) (Bethesda Research Laboratories) from Moloney murine leukemia virus (MMLV) or avian myeloblastosis virus (AMV) (Seikagaku or Boehringer Mannheim) was used to direct DNA synthesis from a polyribonucleotide template and a oligodeoxynucleotide primer under reaction conditions (Houts, G. E., et al, J Virol (1979) 29:517.)
Reaction mixtures (100 μl) for the assay of MMLV RT consisted of 50 mM Tris-hydrochloride, pH 8.0, 6 mM MgCl2, 40 mM KCl, 100 μg bovine serum albumin per ml, 1 mM dithiothreitol, 0.1 mM polyadenylic acid (Pharmacia, Inc.), 0.1 mM oligo(dT)12-18 (Pharmacia, Inc.), 0.4 mM deoxythymidine triphosphate (dTTP), and 0.1 mM tritiated (93.5 Cl/mmol) dTTP (New England Nuclear). The compounds assayed were added in various concentrations and dilutions at a volume of 10 μl. Results were confirmed by duplicate assays. Dilutions were made using 10% aqueous DMSO. The total activity was measured by spotting on dry Whatman 3 mm filter disks and radioactivity was determined by liquid scintillation techniques. The assay time course was begun by adding 10 units of RT from MMLV or AMV and incubating the reaction at 37° C. […] Disks were dried under a heat lamp and the acid-insoluble product radioactivity was determined by liquid scintillation counting. […]

HIV = test: Antiviral activity versus HIV in lymphoblastoid cells; type: cell-based; details: Human immunodeficiency virus 1, Lymphoblastoid cell; read-out: ED50 against HIV
Procedure: The compounds of the invention were evaluated in vitro as antiviral agents against herpes virus and against RNA retrovirus. Various herpes strains were used. An infected B lymphoblastoid cell line was used as HIV substrate to test antiviral activity with respect to RNA retrovirus.
To test antiviral activity versus HIV, the following procedure was used: Infectious HIV was assayed in cell culture as described originally by Barre-Sinoussi et al for isolation of LAV, except that persistently infected lymphoblastoid cells were used instead of mononuclear cells from anti-LAV negative donors. HIV obtained from cell culture was stored in liquid nitrogen in aliquots of RPMI 1640 culture medium with 20% of total calf serum and 20% glycerol and containing 1,000 TCID-50 HIV. The lymphoblastoid cells (10^6) were incubated with 1,000 TCID-50 of HIV obtained from cell cultures, and cells were then cultured in RPMI-1640 medium. Culture medium was changed every 3 days for 3 weeks and the medium for each 3-day period from Day 6 through Day 21 was assayed for viral reverse transcriptase activity by concentrating (pelleting) virus by ultracentrifugation in the 100 place Spinco 25 rotor and assaying pellets for reverse transcriptase (RT) using a ^32 P-dTTP in the presence of dimer-template poly rA-oligo dT. […]

[5] = MA104, read-out: CPE Inhib., Table 2
[6] = MA104, read-out: CPE Inhib., Table 3 Test 1
[7] = MA104, read-out: CPE Inhib., Table 3 Test 2

Nc1ncnc2c1ncn2[C@@H]1O[C@H](CO)[C@@H](O)[C@@H]1O [Vidarabine]
EC50 ([1]; MA104, 72 h, read-out: ED50): 10 µg/mL (≈ 37.4 µM) | inhibition at 1 µg/mL [1, 5]: 56% | inhibition at 3.2 µg/mL [1, 5]: 28% | inhibition at 10 µg/mL [1, 5]: 69% | inhibition at 32 µg/mL ([1]; MA104, read-out: CPE Inhib., Table 2, 32 μg/ml): 87% | inhibition at 100 µg/mL [1, 5]: 87% | inhibition at 320 µg/mL [1, 5]: 100% | inhibition at 1000 µg/mL [1, 5]: 100% | inhibition at 1 µg/mL [1, 6]: 0% | inhibition at 10 µg/mL [1, 6]: 60% | inhibition at 320 µg/mL [1, 6]: 100% | inhibition at 1000 µg/mL [1, 6]: 100% | inhibition at 1 µg/mL [1, 7]: 0% | inhibition at 3.2 µg/mL [1, 7]: 0% | inhibition at 100 µg/mL [1, 7]: 85% | inhibition at 320 µg/mL [1, 7]: 100% | inhibition at 1000 µg/mL [1, 7]: 100% | VR (Virus Rating) ([1]; Table 2, HSV-1TK+): 1.3 | VR (Virus Rating) ([1]; Table 3 Test 1, HSV-1TK+): 0.8 | VR (Virus Rating) ([1]; Table 3 Test 2, HSV-1TK+): 0.7

Nc1nc2c(ncn2COCCO)c(=O)[nH]1 [Acyclovir, 9-(2-hydroxyethoxymethyl) guanine, reference compound]
No. Plaques ([2]; Experiment No. 1, 32 μg/ml): 7 | No. Plaques ([2]; Experiment No. 1, 100 μg/ml): 1 | No. Plaques ([2]; Experiment No. 2, 10 μg/ml): 20 | No. Plaques ([2]; Experiment No. 2, 32 μg/ml): 8 | No. Plaques ([2]; Experiment No. 2, 100 μg/ml): 1 | Approx. ED50 ([2]; Experiment No. 2, determined from plot of data): 10 to 32 µg/mL | inhibition at 32 µg/mL ([2]; Human betaherpesvirus 5, AD169, Experiment No. 1, 32 μg/ml, read-out: % Reduct.): 59% | inhibition at 100 µg/mL ([2]; Human betaherpesvirus 5, AD169, Experiment No. 1, 100 μg/ml, read-out: % Reduct.): 94% | inhibition at 10 µg/mL ([2]; Human betaherpesvirus 5, AD169, Experiment No. 2, 10 μg/ml, read-out: % Reduct.): 9% | inhibition at 32 µg/mL ([2]; Human betaherpesvirus 5, AD169, Experiment No. 2, 32 μg/ml, read-out: % Reduct.): 64% | inhibition at 100 µg/mL ([2]; Human betaherpesvirus 5, AD169, Experiment No. 2, 100 μg/ml, read-out: % Reduct.): 96% | EC50 ([2]; Human betaherpesvirus 5, AD169, Experiment No. 1, determined from plot of data, read-out: Approx. ED50): 10 to 32 µg/mL (≈ 44.4 to 142 µM) | TK+ (average number of lesions) (HSV-1TK+): 1.0 | CC50 [3]: ~1000 µg/mL (≈ 4440 µM)

CCOP(=O)(O)CCC(CO)OCn1cnc2c(=O)[nH]c(N)nc21 (stereo not drawn) [Compound 5, 9(3'-ethylphosphono-1'-hydroxymethyl-1'-propyloxymethyl)guanine]
effectiveness against HSV1TK+ [1]: mildly effective | No. Plaques ([2]; Experiment No. 1, 32 μg/ml): 2 | No. Plaques ([2]; Experiment No. 1, 100 μg/ml): 1 | No. Plaques ([2]; Experiment No. 2, 10 μg/ml): 7 | No. Plaques ([2]; Experiment No. 2, 32 μg/ml): 3 | No. Plaques ([2]; Experiment No. 2, 100 μg/ml): 0 | inhibition at 32 µg/mL ([2]; Human betaherpesvirus 5, AD169, read-out: % Reduct., Experiment No. 1, 32 μg/ml): 88% | inhibition at 100 µg/mL ([2]; Human betaherpesvirus 5, AD169, read-out: % Reduct., Experiment No. 1, 100 μg/ml): 94% | inhibition at 10 µg/mL ([2]; Human betaherpesvirus 5, AD169, read-out: % Reduct., Experiment No. 2, 10 μg/ml): 68% | inhibition at 32 µg/mL ([2]; Human betaherpesvirus 5, AD169, read-out: % Reduct., Experiment No. 2, 32 μg/ml): 86% | inhibition at 100 µg/mL ([2]; Human betaherpesvirus 5, AD169, read-out: % Reduct., Experiment No. 2, 100 μg/ml): 100% | EC50 ([2]; Human betaherpesvirus 5, AD169, read-out: Approx. ED50, Experiment No. 1, determined from plot of data): ~0.1 µg/mL (≈ 0.277 µM) | EC50 ([2]; Human betaherpesvirus 5, AD169, read-out: Approx. ED50, Experiment No. 2, determined from plot of data): ~3.2 µg/mL (≈ 8.86 µM) | EC50 ([2]; Human betaherpesvirus 5, AD169, read-out: ED50, human CMV): 0.1 to 3.2 µg/mL (≈ 0.277 to 8.86 µM) | human CMV-inhibitory effect relative to acyclovir ([2]; overall, Table 5): more potent | effectiveness against HSV-2 (HSV-2 (Strain E194)): mildly effective | CC50 [3]: ~1000 µg/mL (≈ 2770 µM) | cytotoxicity relative to acyclovir (cells): no more cytotoxic

Nc1nc2c(ncn2COCCCP(=O)(O)O)c(=O)[nH]1 [Compound 1, 9-(3'-phosphono-1'-propoxymethyl)guanine]
activity against HSV-1TK+ relative to vidarabine [1]: comparable to that of vidarabine | VR (Virus Rating) ([1]; additional tests against HSV-1TK+): 0.6 | activity against murine CMV (murine CMV (NJB strain)): not active | inhibition of reverse transcriptase [4]: 75% | EC50 (HIV): 40 to 50 µg/mL (≈ 132 to 165 µM)
